This assay has as its system P388 leukemia ip, CD2F1 mice, survival T/C. The experiment in a line: NCI In Vivo Anticancer Drug Screen. Data for tumor model P388 Leukemia (intraperitoneal) in CD2F1 (CDF1) mice. The following applies: endpoint: median survival time, higher = longer survival. Summed up: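 Mice carrying the transplanted tumor received test compound or vehicle. Survival was recorded in each group, and the value is the treated-group measurement divided by that of the vehicle-treated control group.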

The mark [1] stands for this setting: dose: 100.0 mg/kg/injection, schedule: Q04DX003 (ip), vehicle: saline with Tween-80.
The mark [2] stands for this setting: dose: 200.0 mg/kg/injection, schedule: Q04DX003 (ip), vehicle: saline with Tween-80.
[3] abbreviates: dose: 60.0 mg/kg/injection, schedule: Q01DX005 (ip), vehicle: saline with Tween-80.
Setting [4] is: dose: 120.0 mg/kg/injection, schedule: Q01DX005 (ip), vehicle: saline with Tween-80.
Setting [5] is: dose: 240.0 mg/kg/injection, schedule: Q01DX005 (ip), vehicle: saline with Tween-80.
Where [6] appears, read: dose: 50.0 mg/kg/injection, schedule: Q01DX005 (ip), vehicle: saline with Tween-80.
The mark [7] stands for this setting: dose: 100.0 mg/kg/injection, schedule: Q01DX005 (ip), vehicle: saline with Tween-80.
The mark [8] stands for this setting: dose: 200.0 mg/kg/injection, schedule: Q01DX005 (ip), vehicle: saline with Tween-80.
Where [9] appears, read: dose: 100.0 mg/kg/injection, schedule: Q01DX009 (ip), vehicle: saline with Tween-80.
Setting [10] is: dose: 200.0 mg/kg/injection, schedule: Q01DX009 (ip), vehicle: saline with Tween-80.
Setting [11] is: dose: 100.0 mg/kg/injection, schedule: Q04DX002 (ip), vehicle: Klucel (hydroxypropylcellulose) (HPC).
[12] abbreviates: dose: 200.0 mg/kg/injection, schedule: Q04DX002 (ip), vehicle: Klucel (hydroxypropylcellulose) (HPC).

Values joined by “and” are separate entries in the source; they are usually repeats but may differ in a detail not shown here. Identical values can stand only once. Toxic doses and inconclusive results are not listed.

Turning to `CC(C)=CCC(OC(=O)C=C(C)C)c1cc(O)c2c(O)ccc(O)c2c1O.[Mn]` (stereo unspecified), the T/C by setting is: (dose: 25.0 mg/kg/injection, schedule: Q01DX001 (ip), vehicle: saline with Tween-80) 111 % of control; (dose: 50.0 mg/kg/injection, schedule: Q01DX001 (ip), vehicle: saline with Tween-80) 108 % of control; (dose: 100.0 mg/kg/injection, schedule: Q01DX001 (ip), vehicle: saline with Tween-80) 111 % of control and 124 % of control; (dose: 200.0 mg/kg/injection, schedule: Q01DX001 (ip), vehicle: saline with Tween-80) 124 % of control.
`O=C(NCc1ccccc1)c1ccc(Cl)c(Cl)c1`: the T/C (dose: 25.0 mg/kg/injection, schedule: Q04DX003 (ip), vehicle: saline with Tween-80) is 101 % of control; the T/C (dose: 50.0 mg/kg/injection, schedule: Q04DX003 (ip), vehicle: saline with Tween-80) is 104 % of control; the T/C under setting [1] was 90 % of control; the T/C under setting [2] is 95 % of control.
As to `O=C(O)C(=O)O.O=C(O)C(=O)O.O=C(O)C(=O)O.[Ir]`, the T/C is 120 % of control (dose: 12.5 mg/kg/injection, schedule: Q04DX003 (ip), vehicle: water); 120 % of control (dose: 25.0 mg/kg/injection, schedule: Q04DX003 (ip), vehicle: water); 93 % of control (dose: 50.0 mg/kg/injection, schedule: Q04DX003 (ip), vehicle: water); 98 % of control (dose: 100.0 mg/kg/injection, schedule: Q04DX003 (ip), vehicle: water).
In the case of `Cc1cc2oc3c(c2c(=O)[nH]1)C(=O)c1ccccc1C3=O`, the T/C by setting is: under setting [3], 100 % of control; under setting [4], 94 % of control; under setting [5], 91 % of control.
`COc1ccc(N=C(c2ccccc2)C2C(=O)c3ccccc3C2=O)cc1`: the T/C is 103 % of control under setting [6], 108 % of control under setting [7] and 112 % of control under setting [8].
Turning to `O=C(O)c1cc2c(c(C(=O)O)c1O)CCCC2`, the T/C was 94 % of control (dose: 6.25 mg/kg/injection, schedule: Q01DX005 (ip), vehicle: saline); 92 % of control (dose: 12.5 mg/kg/injection, schedule: Q01DX005 (ip), vehicle: saline); 94 % of control (dose: 25.0 mg/kg/injection, schedule: Q01DX005 (ip), vehicle: saline).
On to `CCCCCCCCCCCCCCCCCc1ccccc1O`, for which the T/C runs as follows: (dose: 7.5 mg/kg/injection, schedule: Q01DX009 (ip), vehicle: saline with Tween-80) 91 % of control; (dose: 15.0 mg/kg/injection, schedule: Q01DX009 (ip), vehicle: saline with Tween-80) 94 % of control; (dose: 30.0 mg/kg/injection, schedule: Q01DX009 (ip), vehicle: saline with Tween-80) 116 % of control.
Regarding `CCCCCCCCCCCC(=O)NCC(=O)NC1C(C)OC(Nc2ncnc3nc[nH]c23)C(O)C1O` (stereo unspecified), the T/C reads like this: (dose: 0.25 mg/kg/injection, schedule: Q01DX009 (ip), vehicle: other) 113 % of control; (dose: 0.5 mg/kg/injection, schedule: Q01DX009 (ip), vehicle: other) 109 % of control.
On to `O=S(=O)(CCl)OCCCCOS(=O)(=O)CCl`, for which the T/C is, setting by setting: (dose: 25.0 mg/kg/injection, schedule: Q04DX003 (ip), vehicle: saline sonified) 109 % of control; (dose: 50.0 mg/kg/injection, schedule: Q04DX003 (ip), vehicle: saline sonified) 104 % of control; (dose: 66.0 mg/kg/injection, schedule: Q01DX009 (ip), vehicle: saline) 120 % of control; (dose: 100.0 mg/kg/injection, schedule: Q04DX003 (ip), vehicle: saline sonified) 118 % of control; (dose: 150.0 mg/kg/injection, schedule: Q01DX009 (ip), vehicle: saline) 150 % of control.
For `CCCCCc1cc(/C=C2/N=C(c3ccc[nH]3)C=C2OC)[nH]c1C`, the T/C runs as follows: (dose: 1.5 mg/kg/injection, schedule: Q01DX009 (ip), vehicle: saline) 114 % of control; (dose: 3.0 mg/kg/injection, schedule: Q01DX009 (ip), vehicle: saline) 120 % of control and 123 % of control; (dose: 6.0 mg/kg/injection, schedule: Q01DX009 (ip), vehicle: saline) 107 % of control.
Turning to `OCCCCCOCCOCCOCCOCCOCCCCCO`, the T/C under setting [6] is 101 % of control, the T/C under setting [7] was 101 % of control and the T/C under setting [8] is 96 % of control.
Turning to `O=C(O)/C=C/C(=O)NCc1ccco1`, the T/C reads like this: under setting [9], 100 % of control; under setting [1], 90 % of control; under setting [10], 109 % of control; under setting [2], 95 % of control; (dose: 400.0 mg/kg/injection, schedule: Q01DX009 (ip), vehicle: saline with Tween-80) 100 % of control; (dose: 400.0 mg/kg/injection, schedule: Q04DX003 (ip), vehicle: saline with Tween-80) 100 % of control.
As for `Cc1nccc2c1[nH]c1cc(N)ccc12.[Cl][Sn][Cl]`, the T/C was 100 % of control (dose: 5.0 mg/kg/injection, schedule: Q01DX009 (ip), vehicle: saline sonified); 95 % of control (dose: 10.0 mg/kg/injection, schedule: Q01DX009 (ip), vehicle: saline sonified); 100 % of control (dose: 20.0 mg/kg/injection, schedule: Q01DX009 (ip), vehicle: saline sonified).
With `CCC(c1ccc(Cl)cc1)C(C#N)c1ccc(Cl)cc1` (stereo unspecified), the T/C was 108 % of control (dose: 50.0 mg/kg/injection, schedule: Q01DX009 (ip), vehicle: Klucel (hydroxypropylcellulose) (HPC)); 104 % of control (dose: 100.0 mg/kg/injection, schedule: Q01DX009 (ip), vehicle: Klucel (hydroxypropylcellulose) (HPC)); 102 % of control (dose: 200.0 mg/kg/injection, schedule: Q01DX009 (ip), vehicle: Klucel (hydroxypropylcellulose) (HPC)).
In the case of `C/C(=N\NC(=S)N1CCCCCC1)c1ccc[nH]1`, the T/C is 111 % of control under setting [11]; 102 % of control under setting [12]; 107 % of control (dose: 400.0 mg/kg/injection, schedule: Q04DX002 (ip), vehicle: Klucel (hydroxypropylcellulose) (HPC)).
With `CC(=O)C(/C=N\N=C(/C)c1cn[nH]c1C)=C(/C)O`, the T/C (dose: 60.0 mg/kg/injection, schedule: Q01DX005 (ip), vehicle: Klucel (hydroxypropylcellulose) (HPC)) is 96 % of control; the T/C (dose: 120.0 mg/kg/injection, schedule: Q01DX005 (ip), vehicle: Klucel (hydroxypropylcellulose) (HPC)) was 92 % of control; the T/C (dose: 240.0 mg/kg/injection, schedule: Q01DX005 (ip), vehicle: Klucel (hydroxypropylcellulose) (HPC)) was 89 % of control.
With `CCOC(=O)c1cc2nc(C(C)C)n(Cc3ccccc3)c2cc(C(=O)OCC)c1=O`, the T/C is 103 % of control under setting [3], 97 % of control under setting [4] and 89 % of control under setting [5].
Turning to `C/C(C(=O)NC1CC1)=C(\C)c1ccc(Cl)cc1`, the T/C by setting is: (dose: 50.0 mg/kg/injection, schedule: Q04DX002 (ip), vehicle: Klucel (hydroxypropylcellulose) (HPC)) 100 % of control; under setting [11], 103 % of control; under setting [12], 102 % of control.
Take `c1ccc(COCC(COCc2ccccc2)(COCc2ccccc2)COCc2ccccc2)cc1`: the T/C reads like this: (dose: 12.5 mg/kg/injection, schedule: Q01DX009 (ip), vehicle: saline + alcohol) 105 % of control; (dose: 25.0 mg/kg/injection, schedule: Q01DX009 (ip), vehicle: saline + alcohol) 104 % of control; (dose: 50.0 mg/kg/injection, schedule: Q01DX009 (ip), vehicle: saline + alcohol) 97 % of control.
`COC(=O)/C=C1/Nc2cnc(Nc3ccccc3)nc2N(c2ccccc2)C1=O`: the T/C runs as follows: (dose: 40.0 mg/kg/injection, schedule: Q01DX009 (ip), vehicle: saline) 87 % of control; (dose: 80.0 mg/kg/injection, schedule: Q01DX009 (ip), vehicle: saline) 89 % of control; (dose: 160.0 mg/kg/injection, schedule: Q01DX009 (ip), vehicle: saline) 87 % of control.
As for `CC(C)(C)CC(C)(C)c1ccc(OCc2cccc(F)c2)cc1`, the T/C is, setting by setting: (dose: 50.0 mg/kg/injection, schedule: Q01DX009 (ip), vehicle: saline with Tween-80) 97 % of control; under setting [9], 97 % of control; under setting [10], 100 % of control.
With `CC1=C(c2ccccc2)OC(=O)C(Cl)(Cl)C1N(c1ccccc1)c1ccccc1` (stereo unspecified), the T/C is, setting by setting: under setting [6], 88 % of control; under setting [7], 93 % of control; under setting [8], 93 % of control.
Regarding `CCOC(=O)c1n[nH]c(C)c1C/C(=N/O)c1ccccc1`, the T/C under setting [6] was 103 % of control, the T/C under setting [7] is 92 % of control and the T/C under setting [8] is 92 % of control.

The values are drawn from PubChem BioAssay AID330 (DTP/NCI, 2004).
